# In patent US20090098536A1, “Method for subgroup analysis in subjects having or being suspected of having inflammatory disease, use of anti-p38MAPK antibodies, kits and their use” (c-a-i-r- biosciences GmbH, priority 2007, published 2009):
# Columns and labels:
# [1] = target: p38MAPKα (Homo sapiens, UniProt Q16539); details: disclosed in WO 2004/110990; cited from earlier work
# [2] = test system: patients with moderate to severe rheumatoid arthritis; test: VeRA trial of the p38MAPK inhibitor VX-702 in rheumatoid arthritis; assay type: in vivo, human; details: according to a Monte Carlo simulation of the distribution of the effects
# Description: It has been claimed that p38MAPK inhibitors were of benefit in treating a large variety of disorders. […] In the VeRA trial, which was conducted to evaluate treatment effects in terms of characteristic manifestations of the disease such as tender joints, swollen joints, morning stiffness and disease activity in a cohort of 315 patients with moderate to severe rheumatoid arthritis, approximately 40% of patients were responsive to treatment with the p38MAPK inhibitor VX-702, compared to a placebo effect of about 30%, arguing for a biochemical net response rate of about 28% according to a Monte Carlo simulation of the distribution of the effects. So far, no explanation for this evident dichotomy between responders and non-responders has been proposed yet.
# [3] = test system: patients with moderate to severe rheumatoid arthritis; details: cohort of 315 patients with moderate to severe rheumatoid arthritis; placebo effect about 30%; cited from earlier work
# Chain of p38MAPKα (Q16539 1-360 isoform Q16539-2): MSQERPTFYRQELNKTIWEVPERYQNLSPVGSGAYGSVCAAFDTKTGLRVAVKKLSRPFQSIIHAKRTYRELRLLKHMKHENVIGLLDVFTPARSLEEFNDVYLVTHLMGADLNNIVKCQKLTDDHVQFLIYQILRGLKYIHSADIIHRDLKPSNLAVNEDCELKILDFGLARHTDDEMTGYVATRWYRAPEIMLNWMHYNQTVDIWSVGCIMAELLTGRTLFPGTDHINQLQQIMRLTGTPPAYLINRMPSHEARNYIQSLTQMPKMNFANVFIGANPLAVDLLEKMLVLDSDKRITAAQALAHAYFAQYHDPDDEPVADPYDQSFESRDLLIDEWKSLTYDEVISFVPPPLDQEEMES
SMILES,IC50 [1] [nM],biochemical net response rate [2],patients responsive to treatment [3]
Fc1ccc(-c2nc3occn3c2-c2ccnc(NC3CC3)n2)cc1 [4-(4-fluorophenyl)-5-(2-[cyclopropyl-amino]-pyrimidyl-4-yl)-imidazooxazole],0.44,–,–
NC(=O)c1ccc(N(C(N)=O)c2c(F)cccc2F)nc1-c1ccc(F)cc1F [VX-702],–,about 28%,approximately 40%
